According to paper PMC7187627 (Antimicrobial Agents and Chemotherapy, 2019):

Experiment: Safety and tolerability (adverse events, laboratory tests, ECG), multiple-ascending-dose phase 1 study
Assay type: in vivo
Source text: Subjects were monitored closely with serial physical examinations, blood evaluations, and 12-lead ECGs. Subjects underwent safety laboratory testing, including measurement of blood cell counts (white blood cell [WBC] with differential, hemoglobin, and platelets), serum chemistry (sodium, potassium, chloride, calcium, bicarbonate, glucose, creatinine, blood urea nitrogen [BUN], creatine kinase [CK], aspartate aminotransferase [AST], alanine aminotransferase [ALT], alkaline phosphatase [ALP], total bilirubin, protein, albumin, amylase, and lipase) and urinalysis (protein, blood, and glucose). Study halting criteria had been established and were reviewed by an independent safety monitor (ISM) and the Safety Monitoring Committee (SMC) prior to proceeding with dosing within a cohort or to the next cohort.
The safety population included all subjects who received at least one dose of the study drug. The safety and tolerability of CRS3123 were evaluated by the sequential review of reported adverse events (AEs), changes from baseline in physical examination findings, vital sign measurements, safety laboratory tests (hematology, clinical chemistry, and urinalysis), and key 12-lead ECG findings. All safety assessments were summarized with descriptive statistics or frequency counts.
The period of observation for AE reporting began on day 1 at the time of study drug administration and continued through the final visit.
All AEs were coded to system organ class (SOC) and preferred term (PT) using the Medical Dictionary for Regulatory Activities (MedDRA), version 17.0 (https://www.meddra.org/). A treatment-emergent AE (TEAE) was defined as any AE that occurred during the study observation period (i.e., from day 1 at the time of study drug administration through the final visit). An AE with a partial onset date was classified as a TEAE if the reported partial onset date could not definitely be identified as before the date of study drug administration. Any AE with a missing onset date or missing time on day of study drug administration was classified as a TEAE.
To count the overall number of subjects who experienced each TEAE and calculation of an occurrence rate, a subject experiencing multiple occurrences of an AE was counted only once for that PT. Similarly, if a subject experienced multiple TEAEs within the same SOC, that subject was counted once to calculate an occurrence rate for the SOC. To count the number of subjects who experienced each TEAE by severity classification (mild, moderate, severe, and life-threatening) and calculate an occurrence rate, a subject experiencing multiple occurrences of an AE of the same severity was counted once in that particular severity classification for that PT. If a subject experienced multiple occurrences of an AE of differing severities, only the most severe occurrence within each PT was counted.

[1] = all TEAEs, Cohort B, 400 mg Q12h (n = 8)
[2] = all TEAEs, Cohort C, 600 mg Q12h (n = 8)
[3] = treatment-related AEs, All active (n = 24)
[4] = treatment-related AEs, Cohort A, 200 mg Q12h (n = 8)
[5] = treatment-related AEs, Cohort B, 400 mg Q12h (n = 8)
[6] = treatment-related AEs, Cohort C, 600 mg Q12h (n = 8)

Q: What does the source list for `O=c1cc(NCCCN[C@@H]2CCOc3c(Br)cc(Br)cc32)[nH]c2ccsc12` [CRS3123]?
A: No. (%) of subjects: Dry skin [1]: 1 (12.5); No. (%) of subjects: Dysgeusia [1]: 1 (12.5); No. (%) of subjects: Ear and labyrinth disorders (system organ class) [1]: 0 (0.0); No. (%) of subjects: Ear discomfort [1]: 0 (0.0); No. (%) of subjects: Erythema [1]: 1 (12.5); No. (%) of subjects: Gastrointestinal disorders (system organ class) [1]: 2 (25.0); No. (%) of subjects: General disorders and administration site conditions (system organ class) [1]: 0 (0.0); No. (%) of subjects: Headache [1]: 1 (12.5); No. (%) of subjects: Hemoglobin decreased [1]: 1 (12.5); No. (%) of subjects: Infections and infestations (system organ class) [1]: 0 (0.0); No. (%) of subjects: Infusion site thrombosis [1]: 0 (0.0); No. (%) of subjects: Injury, poisoning, and procedural complications (system organ class) [1]: 0 (0.0); No. (%) of subjects: Investigations (system organ class) [1]: 4 (50.0); No. (%) of subjects: Lipase increased [1]: 2 (25.0); No. (%) of subjects: Myalgia [1]: 1 (12.5); No. (%) of subjects: Nervous system disorders (system organ class) [1]: 2 (25.0); No. (%) of subjects: Oropharyngeal pain [1]: 0 (0.0); No. (%) of subjects: Psychiatric disorders (system organ class) [1]: 0 (0.0); No. (%) of subjects: Respiratory, thoracic, and mediastinal disorders (system organ class) [1]: 1 (12.5); No. (%) of subjects: Skin and subcutaneous tissue disorders (system organ class) [1]: 2 (25.0); No. (%) of subjects: Subjects with TEAEs [1]: 6 (75.0); No. (%) of subjects: Throat irritation [1]: 1 (12.5); No. (%) of subjects: Upper respiratory tract infection [1]: 0 (0.0); No. (%) of subjects: White blood cell count increased [1]: 0 (0.0); No. (%) of subjects: Alanine aminotransferase increased [2]: 2 (25.0); No. (%) of subjects: Amylase increased [2]: 1 (12.5); No. (%) of subjects: Anxiety [2]: 0 (0.0); No. (%) of subjects: Arthropod bite [2]: 0 (0.0); No. (%) of subjects: Aspartate aminotransferase increased [2]: 2 (25.0); No. (%) of subjects: Blood bilirubin increased [2]: 1 (12.5); No. (%) of subjects: Blood calcium increased [2]: 0 (0.0); No. (%) of subjects: Blood potassium increased [2]: 0 (0.0); No. (%) of subjects: Blood pressure, diastolic, decreased [2]: 1 (12.5); No. (%) of subjects: Blood pressure, diastolic, increased [2]: 1 (12.5); No. (%) of subjects: Blood pressure, systolic, decreased [2]: 0 (0.0); No. (%) of subjects: Blood pressure, systolic, increased [2]: 1 (12.5); No. (%) of subjects: Diarrhea [2]: 0 (0.0); No. (%) of subjects: Dry skin [2]: 0 (0.0); No. (%) of subjects: Dysgeusia [2]: 0 (0.0); No. (%) of subjects: Ear and labyrinth disorders (system organ class) [2]: 0 (0.0); No. (%) of subjects: Ear discomfort [2]: 0 (0.0); No. (%) of subjects: Erythema [2]: 0 (0.0); No. (%) of subjects: Gastrointestinal disorders (system organ class) [2]: 0 (0.0); No. (%) of subjects: General disorders and administration site conditions (system organ class) [2]: 1 (12.5); No. (%) of subjects: Headache [2]: 0 (0.0); No. (%) of subjects: Hemoglobin decreased [2]: 1 (12.5); No. (%) of subjects: Infections and infestations (system organ class) [2]: 0 (0.0); No. (%) of subjects: Infusion site thrombosis [2]: 1 (12.5); No. (%) of subjects: Injury, poisoning, and procedural complications (system organ class) [2]: 0 (0.0); No. (%) of subjects: Investigations (system organ class) [2]: 6 (75.0); No. (%) of subjects: Lipase increased [2]: 2 (25.0); No. (%) of subjects: Musculoskeletal and connective tissue disorders (system organ class) [2]: 0 (0.0); No. (%) of subjects: Myalgia [2]: 0 (0.0); No. (%) of subjects: Nervous system disorders (system organ class) [2]: 0 (0.0); No. (%) of subjects: Oropharyngeal pain [2]: 1 (12.5); No. (%) of subjects: Psychiatric disorders (system organ class) [2]: 0 (0.0); No. (%) of subjects: Respiratory, thoracic, and mediastinal disorders (system organ class) [2]: 1 (12.5); No. (%) of subjects: Skin and subcutaneous tissue disorders (system organ class) [2]: 0 (0.0); No. (%) of subjects: Subjects with TEAEs [2]: 6 (75.0); No. (%) of subjects: Throat irritation [2]: 0 (0.0); No. (%) of subjects: Upper respiratory tract infection [2]: 0 (0.0); No. (%) of subjects: White blood cell count increased [2]: 0 (0.0); withdrawals due to TEAEs (all doses): No subjects were withdrawn; No. (%) of subjects: Alanine aminotransferase increased [3]: 1 (4.2); No. (%) of subjects: Diarrhea [3]: 1 (4.2); No. (%) of subjects: Dysgeusia [3]: 1 (4.2); No. (%) of subjects: Gastrointestinal disorders (system organ class) [3]: 1 (4.2); No. (%) of subjects: Investigations (system organ class) [3]: 1 (4.2); No. (%) of subjects: Lipase increased [3]: 0 (0.0); No. (%) of subjects: Nervous system disorders (system organ class) [3]: 1 (4.2); No. (%) of subjects: Subjects with TEAEs [3]: 3 (12.5); No. (%) of subjects: Alanine aminotransferase increased [4]: 0 (0.0); No. (%) of subjects: Diarrhea [4]: 0 (0.0); No. (%) of subjects: Dysgeusia [4]: 0 (0.0); No. (%) of subjects: Gastrointestinal disorders (system organ class) [4]: 0 (0.0); No. (%) of subjects: Investigations (system organ class) [4]: 0 (0.0); No. (%) of subjects: Lipase increased [4]: 0 (0.0); No. (%) of subjects: Nervous system disorders (system organ class) [4]: 0 (0.0); No. (%) of subjects: Alanine aminotransferase increased [5]: 0 (0.0); No. (%) of subjects: Diarrhea [5]: 1 (12.5); No. (%) of subjects: Dysgeusia [5]: 1 (12.5); No. (%) of subjects: Gastrointestinal disorders (system organ class) [5]: 1 (12.5); No. (%) of subjects: Investigations (system organ class) [5]: 0 (0.0); No. (%) of subjects: Lipase increased [5]: 0 (0.0); No. (%) of subjects: Nervous system disorders (system organ class) [5]: 1 (12.5); No. (%) of subjects: Alanine aminotransferase increased [6]: 1 (12.5); No. (%) of subjects: Diarrhea [6]: 0 (0.0); No. (%) of subjects: Dysgeusia [6]: 0 (0.0); No. (%) of subjects: Gastrointestinal disorders (system organ class) [6]: 0 (0.0); No. (%) of subjects: Investigations (system organ class) [6]: 1 (12.5); No. (%) of subjects: Lipase increased [6]: 0 (0.0); No. (%) of subjects: Nervous system disorders (system organ class) [6]: 0 (0.0); severity of TEAEs (whole study): majority of TEAEs reported in the study were of mild severity
